Measurements: US20260364213A1, “RADIOLABELED COMPOUNDS OF TRIMETHOPRIM AND USES THEREOF” (THE TRUSTEES OF THE UNIVERSITY OF PENNSYLVANIA, priority 2023, published 2026)
Entries after “also recorded” stand apart in the source; their conditions may differ.

Experiments:
Serum stability in FBS = format: in vitro ADME; conditions: FBS at 37 °C, 72 hours, radio-TLC
Experimental: In vitro serum stability of was performed by adding the [^131I]mI-TMP (50 μL, 1.85 MBq) to fetal bovine serum (500 μL). The mixture was then incubated in a ThermoMixer (800 rpm) at 37 °C, and deiodination was analyzed by radio-TLC (10% NH40Ac:MeOH=3:7) at 0, 24, and 72 h. In this condition, free I-131 moved to solvent front whereas intact [^131I]I-TMP remained at the origin.

eDHFR = target: T1, eDHFR (Escherichia coli, UniProt P0ABQ4); conditions: eDHFR+ cells pre-incubated with 10 μM unlabeled TMP
T1 sequence (P0ABQ4 1-159): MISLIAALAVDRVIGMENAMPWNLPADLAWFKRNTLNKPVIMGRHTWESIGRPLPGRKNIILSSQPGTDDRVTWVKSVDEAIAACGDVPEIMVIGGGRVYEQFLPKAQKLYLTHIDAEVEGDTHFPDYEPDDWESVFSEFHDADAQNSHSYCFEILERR

[1] = Ex vivo biodistribution in healthy Balb/c mice; parameters: species or system mouse
Experimental: Given promising in vitro experimental results, a biodistribution study was conducted on healthy balb/c mice. […] Mice were then euthanized 1-hour, 4-hour, and 24-hour post radiotracer injection, and organs were harvested for bio-distribution quantification. […] Total radioactive uptake per organ, in CPM, was determined by γ-counter (Wizard Detector, Perkin Elmer). […] See, FIG. 10A-10B and FIG. 11. These tissues could be sites where eDHFR could be localized using genetic vectors to achieve a high therapeutic index.
Another ex-vivo biodistribution study was performed with potassium iodide (SSKI) administration 8-12-week-old female balb/c mice (n=9) were administered with intraperitoneal administration for thyroid protection, with a dose of 100 mg/kg potassium iodide in a volume of 100 μL/10 g given the day before treatment, 30 minutes before the radioactive [^131I]mI-TMP injection.

HCT116 tumor cells = experiment: Radiotherapy of HCT116 tumor-bearing athymic nude mice; format: in vivo, human
Description: Tumor size measurements were taken using calipers from day 1 to 14 post-injection of the [^131I]mI-TMP to monitor the response of radiation therapy. […] See, FIG. 11 and FIG. 12.
To evaluate the therapeutic potential [^131I]mI-TMP, sixteen (16) 8- to 12-week-old female athymic nude mice (Charles River Laboratories) were inoculated with 1×10^7 HCT116 tumor cells (eDHFR+ or WT) on the left shoulder. The mice were then divided into two groups: […] (8) mice with HCT116-eDHFR (eDHFR-positive cells) and Eight (8) mice with HCT116-WT (eDHFR-negative) cells.
Three (3) of the five (5) mice from each cohort were imaged at 3- and 24-hours post [^131I]mI-TMPI radiotherapy injection using small animal SPECT and CT instruments. Five (5) mice from each cohort (which included the 3 imaged mice from each cohort) were then monitored for 14 days using caliper measurements and IVIS imaging.

I45 eDHFR-FLAG tumors [2] = experiment: Biodistribution in I45 tumor-bearing CD1 nude mice; format: in vivo, human; conditions: 24 hours
Experimental: (§1) RLT in I45 tumors. […] Briefly, I45 eDHFR-FLAG and WT cells were xenografted into the shoulders of female athymic CD1-Foxn1nu mice. The tumors were allowed to grow for ~2 weeks. Subsequently, [^131I]I-TMP was administered intravenously and a limited biodistribution study was performed. […] To assess for cytotoxicity in I45 mesothelioma cells, I45 WT and I45 eDHFR tumors were separately xenografted into CD1-Foxn1nu mice and either [^131I]I-TMP or saline was administered to form 4 experimental cohorts (n=7).
(v) In vivo I45 eDHFR-FLAG Tumor Model. Female CD1 nu/nu mice, aged six to eight weeks, were subject to subcutaneous xenografting. Specifically, I45 eDHFR-Flag cells (1×10^6 cells/mouse) were suspended in a solution comprising equal volumes of 75 μL RPMI complete medium and 75 μL Matrigel Matrix (Corning, 354234) for implantation on the shoulder.

I45 eDHFR-FLAG tumors [3] = experiment: I45 RLT, tumor growth in CD1 nude mice; format: in vivo, human; conditions: 18.5 MBq/mouse i.v. single dose, n=7; listed as [^131I]I-TMP
Experimental: as §1
[^131I]I-TMPI Administration, and Monitoring. Female CD1 nu/nu mice, aged six to eight weeks, underwent subcutaneous xenografting with 1×10^6 I45 WT and I45 eDHFR-Flag cells on the shoulder. The cells were suspended in a 1:1 volume ratio of 75 μL RPMI complete medium and 75 μL Matrigel Matrix (Corning, 354234). Both I45 WT and I45 eDHFR-Flag mice were randomly divided into two groups, with each group consisting of 7 mice. Tumors were grown for 2 weeks. […] [^131I]I-TMP, diluted in 100 μL saline, was injected into two groups containing I45 WT and I45 eDHFR-Flag xenografts on day 9 of initial tumor inoculation. The remaining two groups of I45 WT and I45 eDHFR-Flag xenografts were injected with saline. Tumor growth was monitored from two days before to 10 days after [^131I]I-TMP injection, with measurements taken every other day using calipers. […]

Row | Compound | serum stability, deiodination (Serum stability in FBS) | uptake under blocked conditions (eDHFR) | stomach and liver uptake with KI pre-treatment ([1]; 0.67 MBq, 1 h) | uptake in blood, heart, lungs, brain, pancreas, bones and spleen with KI pre-treatment ([1]; 0.67 MBq, 1 h) | organ radioactivity, 24 h ([1]; 0.74 MBq i.v. tail vein, 24 h, no KI) | organ radioactivity, 1 h ([1]; 0.74 MBq i.v. tail vein, Balb/c, after 1 h time point) | uptake in heart, lungs, brain, pancreas, bones and spleen ([1]; 0.74 MBq i.v., all time points (1, 4, 24 h)) | organ radioactivity with KI pre-treatment ([1]; kidney, small intestine, large intestine, 0.67 MBq, 1 h) | thyroid uptake with KI pre-treatment ([1]; potassium iodide (SSKI) 100 mg/kg, 0.67 MBq, 1 h) | tumor size, eDHFR-Luc tumors (HCT116 tumor cells; 18.5 MBq (500 μCi) i.v. tail vein, caliper, day 1 to 14) | tumor size, eDHFR-negative tumors (HCT116 tumor cells; 18.5 MBq (500 μCi) i.v., day 7 to day 14) | presence in eDHFR+ tumors (I45 eDHFR-FLAG tumors [2]; 18.5 MBq i.v.) | uptake in eDHFR tumors compared to WT tumors (I45 eDHFR-FLAG tumors [2]) | washout from eDHFR tumors (I45 eDHFR-FLAG tumors [2]) | tumor growth / in vivo cytotoxicity, I45 eDHFR tumors (I45 eDHFR-FLAG tumors [3])
1 | COc1cc(Cc2cnc(N)nc2N)cc(I)c1OC [[^131I]mI-TMP, 5-(3-iodo-4,5-dimethoxybenzyl)pyrimidine-2,4-diamine] | without any detectable deiodination | reduced uptake |  |  |  |  |  |  |  |  |  |  |  |  | 
2 | COc1cc(Cc2cnc(N)nc2N)cc([131I])c1OC [[^131I]mI-TMP, 5-(3-iodo-4,5-dimethoxybenzyl)pyrimidine-2,4-diamine] |  |  | low uptake | Minimal to no uptake; also recorded: negligible uptake | increase in radioactivity in thyroid, indicating the deiodination | significant increase in the radioactivity in the kidney, small intestine, stomach, and liver | Minimal to no uptake | significant increase in the radioactivity in the kidney, small intestine and large intestine | abrogated thyroid uptake | reduction in tumor size at day 7 post-injection, which remained stable until day 10 but increased by day 14 | continued to grow from day 7 to day 14 | present in eDHFR+ tumors, even after 24 hours | over 1000 fold | without substantial washout | clear reduction in tumor growth; also recorded: shows in vivo cytotoxicity toward eDHFR-expressing I45 cells
